Each block holds one compound with its values, some of them ahead of it.
Assays:
[1] = NMR CO release experiments for formyl compounds; type: physicochemical; conditions: deuterated PBS or 20% DMSO-d6 in deuterated PBS; determined indirectly from ratio of formic acid formed
Description: Compounds 1-4 were tested for their CO release by NMR. Each compound was placed in deuterated PBS or 20% DMSO-d6 in deuterated PBS. CO release yield was indirectly determined by calculating the ratio of formic acid formed as a by-product of the competing hydrolysis reaction.

[2] = system: deoxy-myoglobin; assay: Two-compartment CO-myoglobin (Mb-CO) assay; type: physicochemical; conditions: DMSO/PBS, 37° C., 25 minutes
[3] = COP-1 fluorescent probe evaluation of CO release; type: physicochemical
Description: COP-1, a CO probe that is commonly employed in the literature to detect CO was used to evaluate the ability of different oxalyl-based compounds to release CO under aqueous solution at room temperature. Chloride was replaced with various leaving groups having different pKa values to survey the effect of pKa on CO release.
To a solution of the CO probe COP-1 (0.5 μM) in 3% DMSO in PBS, a solution of 1,2-bis(1,1-dioxido-3-oxobenzo[d]isothiazol-2(3H)-yl)ethane-1,2-dione in DMSO was added to form a 100 μM final solution concentration. The resulting mixture was incubated at 37° C., and the fluorescence emission intensity was recorded at different time points from […] with an excitation wavelength of 475 nm.

[4] = Quantitative CO analysis by GC with thermal conductivity detector; type: physicochemical; conditions: 37° C.; for CO release yield: 4 to 1 acetonitrile: water, 1 h (FIG. 10); for CO yield, effect of pH: pH 1, pH 3 and pH 7.4 buffers in ACN:H2O (4:1), 1 hour (FIG. 11, 12)
Description: An Agilent […] GC System equipped with a thermal conductivity detector was used to detect and quantify CO release yield of the CO prodrugs. Using a gas tight syringe, specific volumes of the headspace of 20-mL headspace vials were sampled and transferred to the injector port maintained at 125° C. Helium was used as the carrier gas with a flow rate of 30 mL/min. Gaseous components of the headspace were separated by passing through a packed column with 60/80 Carboxen-1000 matrix support, […] (4.6 m)×1⁄8 in.×2.1 mm (Supelco). The column was heated 35° C. for 5 min then 225° C. at 20° C./min while the detector was held at 125° C.

[5] = pKa of the conjugate acid of the leaving group; no measurement described; cited from earlier work
[6] = system: LPS induced TNF-α production in RAW264.7 cells; assay: Anti-inflammatory assay: TNF-α ELISA in LPS-stimulated RAW264.7 cell culture; type: cell-based; conditions: total 5 hour pretreatment (Compound 5 medium changed every 1 hour 5 times; Compound 7 single addition)
Description: The effect of the compounds of the present invention on CO-associated anti-inflammation activity was studied. Pro-inflammatory cytokine TNF-α in RAW264.7 cell culture upon stimulation by lipid polysaccharide (LPS) from E. coli was tested with ELSA assay. […] Due to the fast release kinetics of Compound 5, a repeated dosage protocol was used. Indicated concentration of Compound 5 was added to the culture medium right before addition to the cell and the fresh-made drug loaded culture medium was changed every 1 hour 5 times. Compound 7 has a longer half-life and therefore a single addition of the drug can fulfill the anti-inflammation effect. A Total 5 hour pretreatment was used throughout the experiments and the reported CO prodrug shown below (Ji, X., et al. Angew Chem Int Ed Engl 2016, 55 (51), 15846-15851) was used as the positive control: […]

[7] = HPLC kinetics of decomposition; type: physicochemical; conditions: 40% acetonitrile in PBS; 60% PBS (40% acetonitrile), 37° C.
Description: Compound 5 was tested for its rate of decomposition under physiological conditions. The followed samples were injected into the HPLC instrument i) saccharin (200 μM) dissolved in 40% acetonitrile in PBS; and b) incubated solution of the CO-releasing molecule Compound 5 dissolved in 40% acetonitrile in PBS at 37° C. at different time points. A 200 μL aliquot of incubated sample was placed inside a 0.5 mL vial followed by dilution with 200 μL of acetonitrile. The study was performed using the Shimadzu Prominence UFLC with a reversed-phase analytical column (Waters C18 3.5 μM, 4.6×100 mm) at 25° C. The flow rate was set at 1 mL/min. Gradient elution using acetonitrile and deionized water with 0.05% TFA was used to elute out the components of the sample. Elution conditions: 0-7 min 50% to 70% acetonitrile; injection volume 10 μL; detection wavelength of 254 and 280 nm. Experiments were done in triplicate.

[8] = CO release profile of the activated charcoal formulation (GC headspace); type: physicochemical; conditions: 100 mg method A formulation, 3 mL PBS, 37° C.
Description: Activated charcoal comprising Compound 5 (100 mg) that was formulated by method A was put into a GC-headspace vial. PBS (3 mL) preheated to 37° C. was added and the vial was sealed and incubated at 37° C. At different time points, 250 μL of the headspace gas was withdrawn and injected to a gas chromatograph (Agilent 7820) equipped with a RESTEK packed molecular sieve column and a TCD detector. The CO release kinetic and yield were plotted (FIG. 23) based on the CO peak area and calibration curve.

[9] = system: HeLa cells; assay: CCK-8 cytotoxicity assay; type: cell-based; conditions: 0-100 μM, 1% DMSO in DMEM, 24 hours
Description: For the CCK-8 assay, HeLa cells were cultured in DMEM (Dulbecco's Modified Eagle's Medium) supplements with 10% fetal bovine serum (MidSci; SO1520HI) and 1% penicillin-streptomycin (Sigma-Aldrich; P4333) at 37° C. with 5% C02. Fresh medium was replenished every other day. The cells were treated with the compounds (0-100 μM) using 1% DMSO in DMEM for 24 hours.

[10] = LC-MS determination of oxalic acid (CO vs non-CO producing pathways); type: physicochemical; conditions: from a 200-μM sample
Description: LC-MS Studies: CO Production Vs Non-CO Producing Pathways The LCMS analysis was performed on an Agilent 1200 HPLC and 3200 API triple quadrupole mass spectrometer with electrospray ionization source in a negative mode. Selected ion mode was used for the detection of ions at m/z 182 for saccharin and m/z 89 for oxalic acid. A 5 uL of sample solution (compound 5) was directly delivered to the mass spectrometer ionization source with an Agilent autosampler and HPLC by mixing with 1% ACN in water mobile phase at 200 uL/min flow rate. No column was used. Three minutes were recorded and the peak area was integrated and the peak are ratio of PA (Oxalic acid)/PA(Saccharin) vs Concentration ratio (C(Saccharine)/C(Oxalic acid) was plotted as standard curve. The linear regression equation was generated for the calculation of the ratio of unknowns.

[11] = Saturation adsorption assay on activated charcoal; type: physicochemical; conditions: in 10 mg activated charcoal, ACN, 25° C.
Description: A saturation adsorption assay was used to determine the adsorption capacity of the Compound 5 on activated charcoal. Compound 5 was dissolved in anhydrous ACN to form calibration samples with a concentration range from 0.019 to 0.3 mg/ml. The absorbance at 280 nm was measured with a UV-Vis spectrometer and plotted against the concentration to give the calibration curve (FIG. 21).
At room temperature (25° C.), 1-6 mg Compound 5 was mixed with 10 mg of activated charcoal and then 0.5 ml ACN was added. The mixture was shaken for 1 h followed by centrifuging at 12000×g for 5 min and the supernatant was diluted by 50 folds with ACN and measured with UV/Vis spectrometer at 280 nm to get the Compound 5 concentration in the supernatant. Adsorbed mass of Compound 5 was calculated by Formula I: Adsorbed mass=(Initial mass)−0.5*(supernatant concentration) (Formula I) Adsorbed mass=Y0+(Plateau-Y0)*(1−e^kX) (Formula II)

[12] = RP-HPLC stability study (solid and acetonitrile solution); type: physicochemical; conditions: exposed to ambient light and temperature
Description: These prodrugs are also stable as a solution of acetonitrile stored at room temperature for at least seven days.

SMILES: Cc1nn(C=O)c(=S)s1 [Compound 2, 5-Methyl-2-thioxo-1,3,4-thiadiazole-3(2H)-carbaldehyde]
- CO Release Yield (%) [1]: 33%
- formation of CO-myoglobin (UV-Vis spectral signature) [2]: showed the characteristic spectral signature for the formation of CO-myoglobin
- increase in fluorescence with the COP-1 probe ([3]; after 10 minutes of incubation (FIG. 4)): 2.3 fold

SMILES: O=Cn1ccccc1=O [Compound 3, 2-Oxopyridine-1(2H)-carbaldehyde]
- CO Release Yield (%) [1]: 20%

SMILES: C[N+](C)=c1ccn(C=O)cc1.[Br-] [Compound 4, N-(1-Formylpyridin-4(1H)-ylidene)-N-methylmethanaminium Bromide]
- CO Release Yield (%) [1]: 34%

SMILES: O=C(C(=O)N1C(=O)c2ccccc2S1(=O)=O)N1C(=O)c2ccccc2S1(=O)=O [drawing 150]
- pKa [5]: 1.6

SMILES: O=C(C(=O)n1ccnc1)n1ccnc1
- pKa [5]: 14.5

SMILES: O=C(Oc1c(Cl)cc(Cl)cc1Cl)C(=O)Oc1c(Cl)cc(Cl)cc1Cl
- pKa [5]: 6.23

SMILES: O=C(C(=O)N1C(=O)c2ccccc2C1=O)N1C(=O)c2ccccc2C1=O
- pKa [5]: 8.3

Second part, led by results:

- CO release yield [4]: No CO nor CO2 were detected
- CO2 yield ([4]; ACN:H2O (4:1), 1 hour (FIG. 10)): No CO nor CO2 were detected
SMILES: CC(C)(C)OC(=O)C(=O)N1C(=O)c2ccccc2S1(=O)=O [Compound 8, tert-Butyl 2-(1,1-Dioxido-3-oxobenzo[d]isothiazol-2(3H)-yl)-2-oxoacetate]

- CO Release Yield (%) [1]: 20%
SMILES: O=CN1C(=O)c2ccccc2S1(=O)=O [Compound 1, 3-Oxobenzo[d]isothiazole-2(3H)-carbaldehyde 1,1-dioxide]

- CO release yield [4]: 92%±3
- CO yield, effect of pH [4]: around 90%
- half-life [7]: 9.5 ± 0.1 min
SMILES: CC1=CC(=O)N(C(=O)C(=O)N2C(=O)C=C(C)OS2(=O)=O)S(=O)(=O)O1 [Compound 7, 1,2-Bis(6-methyl-2,2-dioxido-4-oxo-1,2,3-oxathiazin-3(4H)-yl)ethane-1,2-dione]
- LPS induced TNF-α production [6]: inhibit LPS induced TNF-α production in a dose-dependent manner
- formation of CO-myoglobin (UV-Vis spectral signature) [2]: showed the characteristic spectral signature for the formation of CO-myoglobin

- total CO release yield [8]: 81%
- CO production estimated from oxalic acid [10]: about 75%
- oxalic acid produced [10]: 47 µM
- maximum adsorption amount on activated charcoal (plateau) [11]: 1.73 mg
- CO release yield [4]: 76%±6
- CO yield, effect of pH [4]: 60% to 30%
- half-life [7]: 1.28 ± 0.03 min
- stable as a solid [12]: at least 24 days
- increase in fluorescence intensity with the COP-1 probe ([3]; after 3 h (FIG. 5), 100 μM compound, 0.5 μM COP-1, 3% DMSO in PBS, 37° C.): 4 fold
SMILES: O=C(C(=O)N1C(=O)c2ccccc2S1(=O)=O)N1C(=O)c2ccccc2S1(=O)=O [Compound 5, 1,2-Bis(1,1-dioxido-3-oxobenzo[d]isothiazol-2(3H)-yl)ethane-1,2-dione]
- toxicity to HeLa cells (cell survival) [9]: no toxicity to HeLa cells up to a 100 μM concentration
- LPS induced TNF-α production [6]: inhibit LPS induced TNF-α production in a dose-dependent manner
- formation of CO-myoglobin (UV-Vis spectral signature) [2]: showed the characteristic spectral signature for the formation of CO-myoglobin

- CO release yield [4]: no CO was detected
SMILES: CS(=O)(=O)N(C(=O)C(=O)N(C(=O)c1ccccc1)S(C)(=O)=O)C(=O)c1ccccc1 [Compound 9, N^1,N^2-Dibenzoyl-N^1,N^2-bis(methylsulfonyl)oxalamide]
